The values below come from patent US9684238B2, “Fluorene-type compound, photopolymerization initiator comprising said fluorene-type compound, and photosensitive composition containing said photopolymerization initiator” (TOKYO OHKA KOGYO CO., LTD., priority 2012, dated 2017).

Molecules are shown by their SMILES.

Common to all, as to format: physicochemical
The nature of data set [1]: Average transmittance of composition. The settings on record: photosensitive composition, quartz cell, optical path length 1 cm. The method, then: The average transmittance (%) of each of the photosensitive resin compositions obtained in Examples 1 to 9, Examples 2-1 to 2-10, and Comparative Examples 1 and 2 in the range of from 400 nm to 700 nm was measured with a spectrophotometer (manufactured by Hitachi High-Technologies Corporation, trade name: “U-3900H”, quartz cell, optical path length; 1 cm).

Data set [2] in a line: Transmittance of transparent cured film. In a few lines:
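Films cured at 80 mJ/cm^2 exposure, otherwise prepared as in the earlier film evaluation. Spectrophotometer read in quartz cell, 1 cm path, giving transmittance (%) at 400 nm and average transmittance (%) over 400–700 nm.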

Data set [3] in a line: Absorption coefficient (absorbance of 0.001% solution in tetrahydrofuran). The method in brief:
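Absorbance of a 0.001% (wt/vol) solution in tetrahydrofuran recorded by spectrophotometer. Absorption maximum wavelength (λmax) taken from the spectrum within 280–400 nm.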

[4] abbreviates: cured at exposure energy quantity 80 mJ/cm^2.
Setting [5] is: 0.001% (wt/vol) solution in tetrahydrofuran.

In the case of `CCCC1(CCC)c2cc(C(=O)c3ccccc3C)ccc2-c2ccc(/C(C)=N/OC(C)=O)cc21` [Compound 4], the “Average transmittance (700 nm to 400 nm) Solution” value in data set [1] was 96.3%. In data set [2] (setting [4]), the “Average transmittance (700 nm to 400 nm) Transparent cured film” value was found to be 99.9% and the “Transmittance (400 nm) Transparent cured film” value is on record as 99.4%. The “transparency of photosensitive composition and formed product (in words)” value in data set [2] (photopolymerization initiator containing the compound) is “additionally excellent transparency”. Moreover, the “Λ max (absorption maximum wavelength)” value in data set [3] (0.001% (wt/vol) in tetrahydrofuran, from 280 nm to 400 nm) came out at 330.5 nm. Also, in data set [3] (setting [5]), the “Absorption coefficient at 365 nm” value amounted to 2.2 mL/mg/cm and the “Absorption coefficient at Λ max” value came out at 85.7 mL/mg/cm.
